The results in this text go back to the supplement of paper PMC7224384.

Assay [1] deals with MDA-MB-453. The experiment in a line: drug sensitivity score (DSS), single agent (DSS (weighted AUC score)); higher = more sensitive (stronger viability decrease); extreme values may be limits of the assay. The settings on record: BLU9931 0 nM; 72 h. The method in brief:
(§1)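 Each 384-well plate held compounds from the FIMM Oncology set, predispensed in singlicate at five 10-fold dilutions spanning a 10,000-fold range, and each well then received 2000 MDA-MB-453 cells in medium with or without an FGFR4 inhibitor at 100 nM final. Plates stayed at 37 °C, 5% CO2 for 72 h, after which cellular ATP was measured with CellTiterGlo 2.0. Readings were converted per plate into percent viability against control wells, and the drug sensitivity score was taken as a weighted area under a four-parameter logistic fit.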

In assay [2] the test system is MDA-MB-453. The experiment in a line: drug sensitivity score (DSS), in combination with BLU9931 (DSS (weighted AUC score)); higher = more sensitive (stronger viability decrease); extreme values may be limits of the assay. Conditions: BLU9931 100 nM; 72 h. The method in brief:
as §1

For the compound `CC1CCC(n2c3cnccc3c3cnc(Nc4ccc5c(n4)CCN(C(=O)CO)C5)nc32)CC1` (centres undefined) [AMG-925], the results for the drug sensitivity score in the assay on MDA-MB-453 [1] and with MDA-MB-453 [2] were 2.6 and 3.4, respectively.
For `CO[C@@H](C)Cn1c(=O)n(C)c2cnc3ccc(-c4cncc(C(C)(C)O)c4)cc3c21`, in that order: 15.3 and 15.3.
The matching figures for `C[C@]12C=CC(=O)C=C1CC[C@@H]1[C@@H]2[C@@H](O)C[C@@]2(C)[C@H]1CC[C@]2(O)C(=O)CO` [Prednisolone]: 8.2 and 0.
Take `CC(C)C(=O)Nc1ccc([N+](=O)[O-])c(C(F)(F)F)c1` [Flutamide]: the drug sensitivity score with MDA-MB-453 [1] and in the assay on MDA-MB-453 [2] was 0 in each case.
Take `C=C1C[C@@H]2CC[C@@]34C[C@H]5O[C@H]6[C@@H](O3)[C@H]3O[C@H](CC[C@@H]3O[C@H]6[C@H]5O4)CC(=O)C[C@@H]3[C@@H](OC)[C@@H](C[C@H](O)CN)O[C@H]3C[C@H]3O[C@@H](CC[C@@H]1O2)C[C@@H](C)C3=C` [Eribulin]: the drug sensitivity score with MDA-MB-453 [1] was 15.5; with MDA-MB-453 [2], 13.4.
On to `Cc1ccc(NC(=O)c2ccc(CN3CC[C@H](N(C)C)C3)c(C(F)(F)F)c2)cc1Nc1nccc(-c2cncnc2)n1` [Bafetinib], for which the drug sensitivity score with MDA-MB-453 [1] and in the assay on MDA-MB-453 [2] was 0 throughout.
As for `Cn1cc(CNCC2CCN(c3ncc(C(=O)NO)cn3)CC2)c2ccccc21` [Quisinostat], the values for the drug sensitivity score with MDA-MB-453 [1] and in the assay on MDA-MB-453 [2] were 22.4 and 21.3, respectively.
For `Nc1ncnc2c1c(COc1cccc(Cl)c1)nn2C1CCOCC1`, in that order: 0.9 and 0.9.
With `CN(C)CCOc1ccc(/C(=C(/CCCl)c2ccccc2)c2ccccc2)cc1` [Toremifene], the drug sensitivity score is 6 in the assay with MDA-MB-453 [1] and 4.1 in the assay on MDA-MB-453 [2].
On to `CN(C)C1CCN(C(=O)c2ccc(NC(=O)Nc3ccc(-c4nc(N5CCOCC5)nc(N5CCOCC5)n4)cc3)cc2)CC1` [Gedatolisib], for which the drug sensitivity score with MDA-MB-453 [1] amounted to 22.9; in the assay on MDA-MB-453 [2] it was 23.7.
`CC(=O)[C@]1(O)Cc2c(O)c3c(c(O)c2[C@@H](O[C@H]2C[C@H](N)[C@H](O)[C@H](C)O2)C1)C(=O)c1ccccc1C3=O` [Idarubicin]: the drug sensitivity score in the assay on MDA-MB-453 [1] worked out at 5.9; with MDA-MB-453 [2], 6.4.
With `C[C@@H]1CN(CC(=O)Nc2ccc3c(c2)Cc2cccc(-c4cc(=O)cc(N5CCOCC5)o4)c2S3)C[C@H](C)O1`, the drug sensitivity score with MDA-MB-453 [1] is 3.1; in the assay on MDA-MB-453 [2], 3.4.
For `CC(C)(C)c1nc(-c2cccc(NS(=O)(=O)c3c(F)cccc3F)c2F)c(-c2ccnc(N)n2)s1` [Dabrafenib], in that order: 1.5 and 0.4.
The matching figures for `Cc1cc2c(C(=O)NC[C@H](C)c3ccccc3)c(O)c(O)cc2c(O)c1-c1c(C)cc2c(C(=O)NC[C@H](C)c3ccccc3)c(O)c(O)cc2c1O` [Sabutoclax]: 12.6 and 12.4.
For `CC(C)NC(=O)COc1cccc(-c2nc(Nc3ccc4[nH]ncc4c3)c3ccccc3n2)c1` [KD025], in that order: 5.6 and 6.
Turning to `CCCCCCCCCCCCCCCCOP(=O)([O-])OCC[N+](C)(C)C` [Miltefosine], the figures for the drug sensitivity score with MDA-MB-453 [1] and with MDA-MB-453 [2] were 2.7 and 3.9, respectively.
The matching figures for `Cc1ccc(NS(=O)(=O)c2cccc(C#N)c2)c2[nH]cc(C#N)c12` [E7820]: 3.3 and 1.1.
As to `COc1cc2c(N3CCN(C(=O)Nc4ccc(OC(C)C)cc4)CC3)ncnc2cc1OCCCN1CCCCC1` [Tandutinib], the drug sensitivity score in the assay with MDA-MB-453 [1] and in the assay with MDA-MB-453 [2] was 0 each time.
Turning to `CN[C@@H]1C[C@H]2O[C@@](C)([C@@H]1OC)n1c3ccccc3c3c4c(c5c6ccccc6n2c5c31)C(=O)N[C@H]4O` [UCN-01], the drug sensitivity score with MDA-MB-453 [1] stood at 18.2; with MDA-MB-453 [2] it was 16.
Turning to `Nc1nc2cc(-c3ccc4ncc(C(=O)N5CCOCC5)n4c3)ccc2o1` [Serabelisib], the drug sensitivity score is 7.8 in the assay on MDA-MB-453 [1] and 9.8 in the assay on MDA-MB-453 [2].
With `O=c1[nH]cc(F)c(=O)[nH]1` [Fluorouracil], the drug sensitivity score in the assay on MDA-MB-453 [1] came to 2.1; in the assay on MDA-MB-453 [2], 0.1.
For `CN(C)C[C@@H]1CCn2cc(c3ccccc32)C2=C(C(=O)NC2=O)c2cn(c3ccccc23)CCO1` [Ruboxistaurin], the drug sensitivity score amounted to 5.3 with MDA-MB-453 [1] and 6.7 in the assay with MDA-MB-453 [2].
Consider `COc1cccc2c1C(=O)c1c(O)c3c(c(O)c1C2=O)C[C@@](O)(C(C)=O)C[C@@H]3O[C@H]1C[C@H](N)[C@H](O)[C@H](C)O1` [Daunorubicin], for which the drug sensitivity score in the assay with MDA-MB-453 [1] turned out to be 7.4; with MDA-MB-453 [2], 5.4.
Turning to `COc1cc(CCc2cc(NC(=O)c3ccc(N4CC(C)NC(C)C4)cc3)n[nH]2)cc(OC)c1` (centres undefined) [AZD4547], the drug sensitivity score in the assay on MDA-MB-453 [1] is 0.3; with MDA-MB-453 [2] it was 0.
Regarding `Cc1ccc(C(=O)N(CCCN)[C@@H](c2oc3cc(Cl)ccc3c(=O)c2Cc2ccccc2)C(C)C)cc1`, the values for the drug sensitivity score in the assay with MDA-MB-453 [1] and in the assay on MDA-MB-453 [2] were 5.3 and 1.8, respectively.
For `CC#CC(=O)N1CC[C@@H](n2c(=O)n(-c3ccc(Oc4ccccc4)cc3)c3c(N)ncnc32)C1` [Tirabrutinib], in that order: 5.7 and 6.3.
`O=C(CCNC(=O)c1ccc(OC(F)(F)F)cc1)N[C@@H]1CCCc2ccccc21` [ML390]: the drug sensitivity score with MDA-MB-453 [1] was determined as 5.2; with MDA-MB-453 [2], 3.
Regarding `Cc1ccc(C(=O)Nc2ccc(Oc3cc4cnn(C)c4cc3-c3cn[nH]c3)c(F)c2)c(=O)n1-c1ccc(F)cc1` [Merestinib], the drug sensitivity score in the assay with MDA-MB-453 [1] and in the assay with MDA-MB-453 [2] was 0 in each case.
For `C[C@]12CC[C@@H]3c4ccc(O)cc4C[C@@H](CCCCCCCCC[S+]([O-])CCCC(F)(F)C(F)(F)F)[C@H]3[C@@H]1CC[C@@H]2O` (some centres undefined) [Fulvestrant], the drug sensitivity score with MDA-MB-453 [1] and in the assay on MDA-MB-453 [2] was 0 throughout.
Regarding `CC(C)(C)c1cc(NC(=O)Nc2ccc(Oc3ccnc4[nH]c(=O)cnc34)cc2F)n(-c2ccccc2)n1`, the drug sensitivity score worked out at 7.9 with MDA-MB-453 [1] and 6.7 with MDA-MB-453 [2].
The matching figures for `CNC(=O)c1ccccc1Nc1cc(Nc2ccc(N3CCOCC3)cc2OC)ncc1C(F)(F)F` [VS-4718]: 1.9 and 0.
For `CCCCOc1nc(N)c2c(n1)N(Cc1cccc(CN3CCCC3)c1)CC(=O)N2` [Vesatolimod], in that order: 3 and 0.
The matching figures for `Cc1cc(Nc2ncnc3ccc(NC4=NC(C)(C)CO4)cc23)ccc1Oc1ccn2ncnc2c1` [Tucatinib]: 0.5 and 0.8.
Take `O=C(Nc1cc(Cl)cc2c1[nH]c1cnccc12)c1cccnc1` [PS-1145]: the drug sensitivity score worked out at 0 in the assay on MDA-MB-453 [1] and 0.3 in the assay with MDA-MB-453 [2].
The matching figures for `CC[C@H](CO)Nc1nc(NCc2ccccc2)c2ncn(C(C)C)c2n1` [Seliciclib]: 0 and 0.2.
Regarding `CN(Cc1cnc2nc(N)nc(N)c2n1)c1ccc(C(=O)N[C@@H](CCC(=O)O)C(=O)O)cc1` [Methotrexate], the figures for the drug sensitivity score in the assay on MDA-MB-453 [1] and with MDA-MB-453 [2] were 1 and 0, respectively.
The matching figures for `CC(=O)c1cc2c(o1)C(=O)c1ccccc1C2=O` [Napabucasin]: 0 and 0.
The matching figures for `CC(C)N(C[C@H]1O[C@@H](n2cnc3c(N)ncnc32)[C@H](O)[C@@H]1O)[C@H]1C[C@@H](CCc2nc3cc(C(C)(C)C)ccc3[nH]2)C1` [Pinometostat]: 0 and 0.
For `CCS(=O)(=O)Nc1ccc(Oc2ccc(F)cc2F)c(-c2cn(C)c(=O)c3[nH]ccc23)c1` [Mivebresib], in that order: 29.9 and 31.1.
Turning to `Cc1cccc(-c2[nH]c(CNc3ccccc3F)nc2-c2ccc3ncnn3c2)n1` [TEW-7197], the figures for the drug sensitivity score in the assay on MDA-MB-453 [1] and in the assay with MDA-MB-453 [2] were 5.2 and 1.8, respectively.
As to `CN1CCN(C(=O)c2ccc3cc(CCNc4ncnc5ccc(C#N)cc45)ccc3c2)CC1` [Senexin B], the results for the drug sensitivity score in the assay with MDA-MB-453 [1] and with MDA-MB-453 [2] were 2.4 and 1.3, respectively.
On to `NC[C@@](O)(c1ccc(Cl)cc1)c1ccc(-c2cn[nH]c2)cc1`, for which the figures for the drug sensitivity score with MDA-MB-453 [1] and with MDA-MB-453 [2] were 1.3 and 2.4, respectively.
As for `CC(=O)c1c(C)c2cnc(Nc3ccc(N4CCNCC4)cn3)nc2n(C2CCCC2)c1=O` [Palbociclib], the figures for the drug sensitivity score with MDA-MB-453 [1] and in the assay on MDA-MB-453 [2] were 2.5 and 4.8, respectively.
The matching figures for `C[C@H]1CN(C2COC2)CCN1c1ccc(Nc2cc(-c3ccnc(N4CCn5c(cc6c5CC(C)(C)C6)C4=O)c3CO)cn(C)c2=O)nc1` [GDC-0853]: 0 and 0.
With `O=C(O)CC[C@H]1CC[C@@](c2cc(F)ccc2F)(S(=O)(=O)c2ccc(Cl)cc2)CC1` [MK-0752], the drug sensitivity score with MDA-MB-453 [1] was found to be 0.1; with MDA-MB-453 [2] it was 0.
For `COC[C@H](NC(=O)c1cnc(C)s1)C(=O)N[C@@H](COC)C(=O)N[C@@H](Cc1ccccc1)C(=O)[C@@]1(C)CO1` [Oprozomib], in that order: 14.8 and 12.3.
The matching figures for `CS(=O)(=O)CCNCc1ccc(-c2ccc3ncnc(Nc4ccc(OCc5cccc(F)c5)c(Cl)c4)c3c2)o1` [Lapatinib]: 6.5 and 7.
